Laboratory results as given in ChEMBL document CHEMBL1177879, “Transition metal complexes of a new hexadentate macroacyclic N2O4-donor Schiff base: inhibitory activity against bacteria and fungi” (2010).

Columns and labels:
Conditions in all cases: read-out: IZ
[1] = system: Aspergillus niger; assay: Antifungal activity against Aspergillus niger at 50 ug after 48 hrs by agar well diffusion assay; format: functional
[2] = system: Candida albicans; assay: Antifungal activity against Candida albicans at 50 ug after 48 hrs by agar well diffusion assay; format: functional
[3] = system: Escherichia coli; assay: Antibacterial activity against Escherichia coli at 50 ug after 48 hrs by agar well diffusion assay; format: functional
[4] = system: Bacillus cirroflagellosus; assay: Antibacterial activity against Bacillus cirroflagellosus at 50 ug after 48 hrs by agar well diffusion assay

SMILES | zone of inhibition at 50 µg/disc [1] [mm] | zone of inhibition at 50 µg/disc [2] [mm] | zone of inhibition at 50 µg/disc [3] [mm] | zone of inhibition at 50 µg/disc [4] [mm]
COC1=CC(=O)C[C@@H](C)[C@]12Oc1c(Cl)c(OC)cc(OC)c1C2=O [GRISEOFULVIN] | 29 | 29.3 | – | –
O=NN(CC(=O)N/N=C\C=N\NC(=O)CN(N=O)c1ccccc1)c1ccccc1 | 16.7 | 19.3 | 16.3 | 16
CCn1cc(C(=O)O)c(=O)c2cc(F)c(N3CCNCC3)cc21 [NORFLOXACIN] | – | – | 28.3 | 28.3
